This is an account of results in US6340784B1, “Method for selective increase of the anticarcinogenic glucosinolates in Brassica sp” (Plant Bioscience Limited, priority 1998, dated 2002).

Assay [1] relates to QR in murine hepatoma Hepa 1c1c7 cells. The note with it: literature value, See Zhang (2), cited from earlier work.
For assay [2] the test system is unchanged. Kind of assay: Induction of QR (quinone reductase, phase II enzyme) activity in Hepa 1c1c7 cells. In kind it is cell-based. Details: induction of QR (fold): unit of the concentration uncertain. The note with it: for CD: pure compound. The procedure: Extracts from the freeze-dried material were assessed for their induction activity in murine hepatoma Hepa 1c1c7 cells. Approximately 0.1 g of milled freeze-dried material was moistened by addition of water (2 ml), homogenised and left at room temperature for 1 hr with occasional mixing. Hot 70% (v/v) methanol (3 ml) was added and mixed thoroughly prior to incubation for 15 min at +70° C. The homogenates were cooled to room temperature and centrifuged for 5 min at 3000 r.p.m. Supernatants were removed and the volume decreased in a vacuum centrifuge to approximately one fifth of the initial volume. The resulting concentrates were filtered through sterile non-pyrogenic filters ([…]) and stored at −70° C. prior to testing. The concentrations of each extract were expressed as dry weight of original material to each ml of culture medium.
Induction was measured according to published methods (Tawfiq, N., Heaney, R. K., Plumb, J. A., Fenwick, G. R., Musk, S. R. R., & Williamson, G. (1995) Carcinogenesis 16, 1191-1194., Prochaska, H. J., & Santamaria, A. B. (1988) Anal. Biochem. 169, 328-336., Williamson, G., Plumb, G. W., Uda, Y., Price, K. R., & Rhodes, M. J. C. (1996) Carcinogenesis 17, 2385-2387.) with the following modifications. Each sample was analysed at eight concentrations using four replicates for each concentration. b-Napthoflavone was used as a positive control at a concentration of 0.2 mM. […] Each cultivar/hybrid was extracted on three occasions and analysed separately.

The mark [3] stands for this setting: assuming 100% conversion of glucosinolate to isothiocyanate, from plant extracts.

Structures are written as SMILES. Like-named read-outs stand apart in the source and are kept apart here. Marks after values point to notes of the source that are not given here.

On to `C[S+]([O-])CCCN=C=S` (stereo not drawn) [3-methylsulfinylpropyl isothiocyanate], for which the “CD value for synthetic isothiocyanate” value in assay [1] was 2.4 µM. Also, in assay [2] (setting [3]), the “apparent CD value” is 0.5 mM.

For the compound `CSCCCN=C=S` [3-methylthiopropyl isothiocyanate], the “CD value for synthetic isothiocyanate” value in assay [1] is 3.5 µM. Also, the “apparent CD value” in assay [2] (setting [3]) is 1.6 mM.

Regarding `C[S+]([O-])CCCCN=C=S` (stereo not drawn) [Synthetic sulforaphane, 4-methylsulfinylbutyl isothiocyanate], the “CD value for synthetic isothiocyanate” value in assay [1] was 0.4-0.8§ μM; in assay [1] (listed as 4-methylsulfinylbutyl) it was 0.4 to 0.8 µM. Further, in assay [2] (at 1.6 (unit uncertain)), the “induction of QR (fold)” value is given as “three-fold”. For the same compound, the “ability to induce QR activity (in words)” value in assay [2] (extracts or compound, cultivar extracts 0.001 mg/ml to 0.125 mg/ml) is “potent inducer”. This compound gave a CD in assay [2] of 0.4 mM. For the same compound, the “apparent CD value” in assay [2] (synthetic compound, positive control) was 0.0003 mM.

On to `O=c1cc(-c2ccccc2)oc2ccc3ccccc3c12` [b-Napthoflavone], for which the “induction of QR (fold)” value in assay [2] (positive control at 0.2 (unit uncertain)) was “three-fold”. In assay [2], this compound yielded a CD of 0.02 mM.
